# In patent publication US12692274B2, “Tetrahydroisoquinoline derivatives for the treatment of red blood disorders and inflammatory diseases” (Sanofi, priority 2020, dated 2026):
# Like-named read-outs stand apart in the source and are kept apart here.
# Conditions: the molecule shown is the open-chain precursor, rcm bond
Substance,"ring closure, crude yield (23-membered ring, Grubbs catalyst (General procedure 7)) [%]","ring closure, crude yield (22-membered ring, Grubbs catalyst (General procedure 15)) [%]"
"amide of methyl 3-(1-(but-3-en-1-yl)-4-methyl-1H-benzo[d][1,2,3]triazol-5-yl)-3-(1,2,3,4-tetrahydroisoquinolin-7-yl)propanoate with 5-(but-3-en-1-yloxy)pyrazine-2-carboxylic acid",42,–
"amide of benzyl 3-(6-(pent-4-en-1-yloxy)pyridin-3-yl)-3-(1,2,3,4-tetrahydroisoquinolin-7-yl)propanoate with 1-methyl-5-vinyl-1H-pyrrolo[2,3-b]pyridine-2-carboxylic acid",–,51
